Measurements from PubChem BioAssay (NCI).
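Protocol summary: plate cells (96-well), add compound at 5 concentrations, incubate 48 h, interpolate endpoints linearly. Definition used: TGI = concentration required for complete inhibition of growth.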

Key:
Assay in all cases: NCI tumour cell line growth inhibition, 48 h
BT-549 breast = system: BT-549 breast
SK-MEL-28 melanoma = system: SK-MEL-28 melanoma
DU-145 prostate = system: DU-145 prostate
SF-539 CNS = system: SF-539 CNS
UO-31 renal = system: UO-31 renal
SK-MEL-5 melanoma = system: SK-MEL-5 melanoma
HL-60(TB) leukemia = system: HL-60(TB) leukemia
PC-3 prostate = system: PC-3 prostate
NCI-H23 lung = system: NCI-H23 lung
KM12 colon = system: KM12 colon
CCRF-CEM leukemia = system: CCRF-CEM leukemia
SK-MEL-2 melanoma = system: SK-MEL-2 melanoma
CAKI-1 renal = system: CAKI-1 renal
HT29 colon = system: HT29 colon
SR leukemia = system: SR leukemia
OVCAR-3 ovarian = system: OVCAR-3 ovarian
786-0 renal = system: 786-0 renal
U251 CNS = system: U251 CNS
T-47D breast = system: T-47D breast
UACC-257 melanoma = system: UACC-257 melanoma
OVCAR-4 ovarian = system: OVCAR-4 ovarian
HCT-15 colon = system: HCT-15 colon
IGROV1 ovarian = system: IGROV1 ovarian
NCI/ADR-RES ovarian = system: NCI/ADR-RES ovarian
HCC-2998 colon = system: HCC-2998 colon
MALME-3M melanoma = system: MALME-3M melanoma
HS 578T breast = system: HS 578T breast
SN12C renal = system: SN12C renal
LOX IMVI melanoma = system: LOX IMVI melanoma
SF-295 CNS = system: SF-295 CNS
RPMI-8226 leukemia = system: RPMI-8226 leukemia
COLO 205 colon = system: COLO 205 colon
OVCAR-8 ovarian = system: OVCAR-8 ovarian
RXF 393 renal = system: RXF 393 renal
NCI-H460 lung = system: NCI-H460 lung
SF-268 CNS = system: SF-268 CNS
MDA-MB-435 = system: MDA-MB-435
MDA-N = system: MDA-N
A498 renal = system: A498 renal
OVCAR-5 ovarian = system: OVCAR-5 ovarian
SW-620 colon = system: SW-620 colon
MDA-MB-231 breast = system: MDA-MB-231 breast
HOP-92 NSCLC = system: HOP-92 NSCLC
SNB-19 CNS = system: SNB-19 CNS
TK-10 renal = system: TK-10 renal
A549 NSCLC = system: A549 NSCLC
HCT-116 colon = system: HCT-116 colon
EKVX NSCLC = system: EKVX NSCLC
SK-OV-3 ovarian = system: SK-OV-3 ovarian
NCI-H522 lung = system: NCI-H522 lung
MCF7 breast = system: MCF7 breast
NCI-H226 lung = system: NCI-H226 lung
ACHN renal = system: ACHN renal
HOP-62 NSCLC = system: HOP-62 NSCLC
M14 melanoma = system: M14 melanoma
SNB-75 CNS = system: SNB-75 CNS
K-562 leukemia = system: K-562 leukemia
UACC-62 melanoma = system: UACC-62 melanoma
MOLT-4 leukemia = system: MOLT-4 leukemia

## CC(=N\N=C\c1ccccn1)/C(C)=N/N=C/c1ccccn1
BT-549 breast
  TGI: > 100 µM
SK-MEL-28 melanoma
  TGI: > 100 µM
DU-145 prostate
  TGI: > 100 µM
SF-539 CNS
  TGI: > 100 µM
UO-31 renal
  TGI: > 100 µM
SK-MEL-5 melanoma
  TGI: > 100 µM
HL-60(TB) leukemia
  TGI: > 100 µM
PC-3 prostate
  TGI: > 100 µM
NCI-H23 lung
  TGI: > 100 µM
KM12 colon
  TGI: > 100 µM
CCRF-CEM leukemia
  TGI: > 100 µM
SK-MEL-2 melanoma
  TGI: > 100 µM
CAKI-1 renal
  TGI: > 100 µM
HT29 colon
  TGI: > 100 µM
SR leukemia
  TGI: > 100 µM
OVCAR-3 ovarian
  TGI: > 100 µM
786-0 renal
  TGI: > 100 µM
U251 CNS
  TGI: > 100 µM
T-47D breast
  TGI: > 100 µM
UACC-257 melanoma
  TGI: > 100 µM
OVCAR-4 ovarian
  TGI: > 100 µM
HCT-15 colon
  TGI: > 100 µM
IGROV1 ovarian
  TGI: > 100 µM
NCI/ADR-RES ovarian
  TGI: > 100 µM
HCC-2998 colon
  TGI: > 100 µM
MALME-3M melanoma
  TGI: > 100 µM
HS 578T breast
  TGI: > 100 µM
SN12C renal
  TGI: > 100 µM
LOX IMVI melanoma
  TGI: > 100 µM
SF-295 CNS
  TGI: > 100 µM
RPMI-8226 leukemia
  TGI: > 100 µM
COLO 205 colon
  TGI: > 100 µM
OVCAR-8 ovarian
  TGI: > 100 µM
RXF 393 renal
  TGI: > 100 µM
NCI-H460 lung
  TGI: > 100 µM
SF-268 CNS
  TGI: > 100 µM
MDA-MB-435
  TGI: > 100 µM
MDA-N
  TGI: > 100 µM
A498 renal
  TGI: > 100 µM
OVCAR-5 ovarian
  TGI: > 100 µM
SW-620 colon
  TGI: > 100 µM
MDA-MB-231 breast
  TGI: > 100 µM
HOP-92 NSCLC
  TGI: > 100 µM
SNB-19 CNS
  TGI: > 100 µM
TK-10 renal
  TGI: > 100 µM
A549 NSCLC
  TGI: > 100 µM
HCT-116 colon
  TGI: > 100 µM
EKVX NSCLC
  TGI: > 100 µM
SK-OV-3 ovarian
  TGI: > 100 µM
NCI-H522 lung
  TGI: > 100 µM
MCF7 breast
  TGI: > 100 µM
NCI-H226 lung
  TGI: > 100 µM
ACHN renal
  TGI: > 100 µM
HOP-62 NSCLC
  TGI: > 100 µM
M14 melanoma
  TGI: > 100 µM
SNB-75 CNS
  TGI: > 100 µM

## Cc1cccc2cc3ccc4ccccc4c3cc12
BT-549 breast
  TGI: > 100 µM
SK-MEL-28 melanoma
  TGI: > 100 µM
DU-145 prostate
  TGI: > 100 µM
SF-539 CNS
  TGI: > 100 µM
UO-31 renal
  TGI: > 100 µM
SK-MEL-5 melanoma
  TGI: 52.6 µM
HL-60(TB) leukemia
  TGI: 52 µM
K-562 leukemia
  TGI: > 100 µM
PC-3 prostate
  TGI: > 100 µM
NCI-H23 lung
  TGI: > 100 µM
KM12 colon
  TGI: > 100 µM
CCRF-CEM leukemia
  TGI: 39.3 µM
SK-MEL-2 melanoma
  TGI: 66.5 µM
CAKI-1 renal
  TGI: > 100 µM
HT29 colon
  TGI: 97.8 µM
UACC-62 melanoma
  TGI: > 100 µM
SR leukemia
  TGI: 47.4 µM
OVCAR-3 ovarian
  TGI: > 100 µM
786-0 renal
  TGI: > 100 µM
U251 CNS
  TGI: > 100 µM
T-47D breast
  TGI: > 100 µM
UACC-257 melanoma
  TGI: 53 µM
OVCAR-4 ovarian
  TGI: > 100 µM
HCT-15 colon
  TGI: > 100 µM
MOLT-4 leukemia
  TGI: 70.9 µM
IGROV1 ovarian
  TGI: > 100 µM
NCI/ADR-RES ovarian
  TGI: > 100 µM
HCC-2998 colon
  TGI: 46.7 µM
MALME-3M melanoma
  TGI: > 100 µM
HS 578T breast
  TGI: > 100 µM
SN12C renal
  TGI: > 100 µM
LOX IMVI melanoma
  TGI: > 100 µM
SF-295 CNS
  TGI: > 100 µM
RPMI-8226 leukemia
  TGI: > 100 µM
COLO 205 colon
  TGI: 39 µM
OVCAR-8 ovarian
  TGI: > 100 µM
RXF 393 renal
  TGI: > 100 µM
NCI-H460 lung
  TGI: 83.2 µM
SF-268 CNS
  TGI: > 100 µM
MDA-MB-435
  TGI: > 100 µM
MDA-N
  TGI: > 100 µM
A498 renal
  TGI: > 100 µM
OVCAR-5 ovarian
  TGI: > 100 µM
SW-620 colon
  TGI: > 100 µM
MDA-MB-231 breast
  TGI: > 100 µM
HOP-92 NSCLC
  TGI: > 100 µM
SNB-19 CNS
  TGI: > 100 µM
TK-10 renal
  TGI: > 100 µM
A549 NSCLC
  TGI: > 100 µM
HCT-116 colon
  TGI: > 100 µM
EKVX NSCLC
  TGI: 78.3 µM
SK-OV-3 ovarian
  TGI: > 100 µM
NCI-H522 lung
  TGI: 95.5 µM
MCF7 breast
  TGI: 98 µM
NCI-H226 lung
  TGI: > 100 µM
ACHN renal
  TGI: > 100 µM
HOP-62 NSCLC
  TGI: > 100 µM
M14 melanoma
  TGI: > 100 µM
SNB-75 CNS
  TGI: > 100 µM
